According to patent US9926340B2, “NAD analogs and methods of using said NAD analogs in determining ribosylation of proteins with PARP mutants” (The Board of Regents of the University of Texas System, priority 2015, dated 2018):

Test system: HeLa cell nuclear extract proteins
Assay: ADP-ribosylation of HeLa cell nuclear extract proteins by asPARPs 1, 2 or 3
Type: biochemical, human
Details: purified recombinant asPARPs 1, 2, or 3; 250 μM analog, 15 min
Description: HeLa cell nuclear extract preparation. HeLa Nuclear Extract was prepared essentially as described in Dignam et al., 1983. 5 L of HeLa S3 cells were grown in Spinner flasks to a density of 0.5×10^6 cells per milliliter and harvested by centrifugation at 4° C. for 10 minutes at 2000 RPM. Cell pellets were washed in 5 pelleted cell volumes of ice cold PBS and centrifuged 10 minutes at 2000 RPM. Cells were resuspended in 5 pelleted cell volumes of Buffer A (10 mM HEPES, pH 7.9, 1.5 mM MgCl2, 10 mM KCl, 0.5 mM DTT, 1 mM PMSF, 4 mM Benzamidine, 1 μM Aprotinin, 100 μM Leupeptin, 1 μM Pepstatin A) and incubated 10 minutes on ice to facilitate cell swelling and centrifuged at 4° C. for 10 minutes at 2000 RPM. Cells were resuspended in 2 pelleted cell volumes of Buffer A and dounced with a light pestle dounce homogenizer (Wheaton) to release nuclei. The nuclei were then pelleted by centrifugation at 4° C. for 10 minutes at 2000 RPM and the supernatant decanted. The nuclei were subsequently centrifuged at 4° C. for 20 minutes at 25,000 RCF to obtain a crude nuclear fraction. […]

C#CCCSc1nc2c(N)ncnc2n1[C@@H]1O[C@H](COP(=O)(O)OP(=O)(O)OC[C@H]2O[C@@H]([n+]3cccc(C(N)=O)c3)C(O)C2O)[C@H](O)C1O (stereo partly shown) [8-Bu(3-yne)T-NAD^+]
labeling of HeLa cell nuclear extract proteins: PARP-specific labeling of extract proteins
